{"source": "patent US20240156800A1", "about": "“EP300 DEGRADER AND USES THEREOF IN NEUROBLASTOMA” (DANA-FARBER CANCER INSTITUTE, INC., priority 2021, published 2024)", "key": {"EP300": {"molecular_target": "T1, EP300 (Homo sapiens, UniProt Q09472)", "T1 construct": "Cells growing in culture were lysed for whole cell lysates; endogenous in cells; host or cells: Kelly, NGP, SIMA, BE2C neuroblastoma cells; Kelly xenografts in NSG mice", "T1 sequence (Q09472 whole entry)": "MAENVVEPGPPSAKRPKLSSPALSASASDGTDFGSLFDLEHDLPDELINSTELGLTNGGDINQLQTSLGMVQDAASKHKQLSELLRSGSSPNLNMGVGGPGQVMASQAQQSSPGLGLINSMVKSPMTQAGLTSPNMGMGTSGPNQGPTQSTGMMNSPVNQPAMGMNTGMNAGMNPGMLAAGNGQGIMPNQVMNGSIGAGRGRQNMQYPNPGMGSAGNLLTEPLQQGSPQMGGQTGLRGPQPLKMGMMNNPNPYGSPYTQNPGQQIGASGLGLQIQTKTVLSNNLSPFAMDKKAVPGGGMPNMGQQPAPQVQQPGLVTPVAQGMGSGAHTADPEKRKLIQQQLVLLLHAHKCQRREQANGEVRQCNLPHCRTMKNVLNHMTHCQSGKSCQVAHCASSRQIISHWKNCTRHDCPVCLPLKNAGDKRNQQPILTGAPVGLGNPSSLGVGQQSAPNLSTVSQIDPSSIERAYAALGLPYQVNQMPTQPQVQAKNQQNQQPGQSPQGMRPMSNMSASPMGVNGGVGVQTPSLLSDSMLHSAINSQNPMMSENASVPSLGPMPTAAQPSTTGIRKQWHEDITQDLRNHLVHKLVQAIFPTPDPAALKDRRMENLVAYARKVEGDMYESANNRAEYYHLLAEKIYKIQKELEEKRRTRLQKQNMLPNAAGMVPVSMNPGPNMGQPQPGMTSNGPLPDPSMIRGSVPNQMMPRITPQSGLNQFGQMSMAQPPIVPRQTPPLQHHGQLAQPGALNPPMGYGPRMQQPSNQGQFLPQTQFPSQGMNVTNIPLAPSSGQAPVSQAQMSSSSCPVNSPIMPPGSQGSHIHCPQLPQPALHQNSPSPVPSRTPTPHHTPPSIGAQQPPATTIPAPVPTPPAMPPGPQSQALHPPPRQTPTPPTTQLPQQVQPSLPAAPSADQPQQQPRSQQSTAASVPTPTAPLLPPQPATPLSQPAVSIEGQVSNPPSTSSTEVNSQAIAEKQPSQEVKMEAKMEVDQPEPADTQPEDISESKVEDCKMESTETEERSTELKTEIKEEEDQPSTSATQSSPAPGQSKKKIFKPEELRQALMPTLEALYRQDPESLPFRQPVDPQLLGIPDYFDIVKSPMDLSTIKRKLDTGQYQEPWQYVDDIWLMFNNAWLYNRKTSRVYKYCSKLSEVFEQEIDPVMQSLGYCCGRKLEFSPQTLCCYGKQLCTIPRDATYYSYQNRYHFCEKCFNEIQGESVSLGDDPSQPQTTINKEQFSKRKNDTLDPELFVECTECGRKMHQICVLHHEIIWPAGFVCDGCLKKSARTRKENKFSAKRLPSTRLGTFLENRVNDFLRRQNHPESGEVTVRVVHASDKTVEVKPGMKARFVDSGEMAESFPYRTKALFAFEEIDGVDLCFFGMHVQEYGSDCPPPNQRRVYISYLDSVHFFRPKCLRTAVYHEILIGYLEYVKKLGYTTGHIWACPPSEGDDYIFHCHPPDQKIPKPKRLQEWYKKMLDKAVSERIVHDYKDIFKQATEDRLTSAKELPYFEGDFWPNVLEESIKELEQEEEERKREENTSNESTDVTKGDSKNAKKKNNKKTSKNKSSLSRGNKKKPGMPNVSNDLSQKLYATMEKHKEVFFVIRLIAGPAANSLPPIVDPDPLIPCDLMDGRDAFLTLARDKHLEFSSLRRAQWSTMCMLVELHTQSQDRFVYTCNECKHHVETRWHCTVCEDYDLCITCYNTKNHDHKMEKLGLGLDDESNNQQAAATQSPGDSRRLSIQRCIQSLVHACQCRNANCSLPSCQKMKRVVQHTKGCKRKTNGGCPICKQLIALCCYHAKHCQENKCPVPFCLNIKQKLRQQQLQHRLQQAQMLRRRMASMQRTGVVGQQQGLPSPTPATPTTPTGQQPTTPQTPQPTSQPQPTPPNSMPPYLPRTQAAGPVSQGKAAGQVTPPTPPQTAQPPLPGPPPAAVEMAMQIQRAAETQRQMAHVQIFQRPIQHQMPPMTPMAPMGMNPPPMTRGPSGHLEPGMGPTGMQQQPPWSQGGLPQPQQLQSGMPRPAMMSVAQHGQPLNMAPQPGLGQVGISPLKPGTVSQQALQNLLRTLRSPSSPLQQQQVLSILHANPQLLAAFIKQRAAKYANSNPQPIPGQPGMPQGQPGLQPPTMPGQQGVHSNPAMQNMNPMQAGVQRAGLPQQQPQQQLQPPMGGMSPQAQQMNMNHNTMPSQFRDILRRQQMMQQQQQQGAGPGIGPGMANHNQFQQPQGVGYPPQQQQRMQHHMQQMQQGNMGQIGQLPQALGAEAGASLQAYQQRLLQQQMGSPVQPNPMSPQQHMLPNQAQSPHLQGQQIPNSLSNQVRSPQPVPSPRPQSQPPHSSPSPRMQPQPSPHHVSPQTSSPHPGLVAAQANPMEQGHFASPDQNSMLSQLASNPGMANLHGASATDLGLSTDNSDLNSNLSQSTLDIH", "assay": "Western blotting of EP300 in treated NB cells", "type": "cell-based", "experimental": "Cells growing in culture were lysed for whole cell lysates as described in Durbin et al. Nat. Genet. 50:1240-1246 (2018) and Wang et al. Nat. Commun. 10:5622 (2019). Nuclear lysates were prepared using the NE-PER® nuclear lysate kit (Thermo Scientific™) according to the manufacturer's protocol. Chromatin lysates were prepared with the total histone extraction kit (Epigentek). Briefly, equivalent amounts of protein were resolved by western blotting using 4-12% Bis-Tris NuPAGE™ gels (Thermo-Fisher Scientific) prior to transfer, and immunoblotting using primary antibodies to: MYCN (1:1000, Cell Signaling Technology®), H3K27ac (1:1000, Abcam), total H3 (1:1000, Cell Signaling Technology®), EP300 (1:1000, Abcam), CBP (1:500, Cell Signaling Technology®), Cas9 (1:1000, Cell Signaling Technology®), cleaved-PARP1 (1:1000, Cell Signaling Technology), cleaved Caspase-3 (1:1000, Cell Signaling Technology®), β-actin (1:1000, Cell Signaling Technology®), GATA3 (1:1000, EMD Millipore™), TFAP2β (1:1000, Cell Signaling Technology®), Vinculin (1:1000, EMD Millipore™), CRBN (1:1000, Cell Signaling Technology®), HAND2 (1:1000, Santa Cruz Biotechnology). Secondary antibodies were horseradish peroxidase (HRP)-conjugated anti-rabbit or anti-mouse (1:5000, Santa Cruz Biotechnology), incubated prior to exposure to enhanced chemiluminescence reagents (GE, Amersham). For immunoprecipitation, equal amounts of protein were diluted in buffer C as described in Mansour et al. Science 346:1373-1377 (2014) and incubated with antibodies covalently conjugated to Dynabeads™ M-270 beads (Thermo-Fisher Scientific) overnight according to the manufacturer's directions. Antibodies used included: H3K27ac, EP300 (Abcam), CBP, TFAP2β (Cell Signaling Technology®), rabbit immunoglobulin G (IgG) (Santa Cruz Biotechnology®). Immunoprecipitated protein was isolated as per the manufacturer's directions and subjected to western blotting, as described above, or mass spectrometry."}, "[1]": {"test_system": "Kelly, NGP and BE2C NB cells", "assay": "Propidium iodide DNA flow cytometry (cell cycle, sub-G1)", "type": "cell-based, human", "conditions": "Kelly and NGP cells", "experimental": "Cells were infected with lentiviruses encoding single guide RNAs (sgRNAs) or treated with compounds as described for the noted length of time. Cells were then liberated from adhesion to the plate using a sterile spatula (Coming®) followed by centrifugation, aspiration of media, and resuspension in hypotonic citrate-propidium iodide (PI) solution for 30 minutes at 37° C. (Tate et al. Cytometry 4:211-215 (1983)). Nuclei were stabilized using 5M NaCl prior to analysis on a FACSAria™ II (BD Biosciences). Analysis of cell cycle phases was performed using FlowJo® v10.7 (BD Biosciences)."}, "BE2C-CRBN cells": {"test_system": "BE2C-CRBN cells", "assay": "Cell-Titer Glo growth of BE2C cells overexpressing CRBN or zsGreen", "type": "cell-based, human", "conditions": "10 μM, 6 days", "experimental": "Cells were infected with lentiviruses encoding sgRNAs or treated with compounds as described. Colony assays were performed by replating cells at 500 cells per well in 6-well dishes and grown in regular growth media for 10 d before 100% methanol fixation, 0.05% crystal violet staining, and quantitation. Experiments were completed in triplicate; data shown are the average of three independent experiments. Cell Titer-Glo® assay was performed as per the manufacturer's instructions (Promega®). Briefly, 1000 cells/well were plated into 96-well plates and treated with a range of compound dosing. Cell viability was measured at the noted time points based on luminescence by the Cell Titer-Glo® assay (Promega®) and read on an Envision 2104 (PerkinElmer®, USA) according to the manufacturer's protocol.\nsgRNAs targeting individual genes were subcloned by standard methodologies within pLKO.5-EFGP. Kelly, SIMA, BE2C, and NGP cells were infected with lenticas9 followed by blasticidin selection. Stable expression of cas9 was established by western blotting of protein lysates using cas9 antibody (Cell Signaling Technology®). Following infection of pLKO.5-EGFP-sgRNA lentivirus, cells were cultured for the identified times prior to evaluation. BE2C cells were infected with pLC-zsgreen or pLC-CRBN lentiviruses and selected using 500 μg/mL hygromycin (Invitrogen™)"}}}
{"smiles": "C[C@H](N(Cc1ccc(F)cc1)C(=O)CN1C(=O)O[C@@]2(CCc3cc(NC(=O)CCCCCCCCCCCNc4ccc5c(c4)C(=O)N(C4CCC(=O)NC4=O)C5=O)ccc32)C1=O)C(F)(F)F", "note": "(stereo partly drawn) [JQAD1, 12-((2-(2,6-dioxopiperidin-3-yl)-1,3-dioxoisoindolin-5-yl)amino)-N-((R)-3′-(2-((4-fluorobenzyl)((S)-1,1,1-trifluoropropan-2-yl)amino)-2-oxoethyl)-2′,4′-dioxo-2,3-dihydrospiro[indene-1,5′-oxazolidin]-5-yl)dodecanamide]", "values": [{"measurement": "EP300 expression in BE2C-CRBN cells", "setting": "EP300; BE2C cells overexpressing CRBN, 10 μM", "result": "degraded within 24 h"}, {"measurement": "EP300 expression in control BE2C-zsGreen cells", "setting": "EP300; BE2C-zsGreen cells, 10 μM", "result": "unaffected"}, {"measurement": "degradation of EP300 on co-treatment with excess A485, pomalidomide, bortezomib or MLN4924", "setting": "EP300; Kelly cells, 4 h pre-treatment, then JQAD1 500 nM 48 h", "result": "blocked"}, {"measurement": "EP300 expression", "setting": "EP300; Kelly cells, 24 h", "result": "dose-dependent decrease in EP300 expression"}, {"measurement": "EP300 expression", "setting": "EP300; Kelly cells, 24 h, listed as (R,S)-JQAD1", "result": "suppressed both H3K27ac and EP300 expression levels"}, {"measurement": "EP300 expression (time course)", "setting": "EP300; Kelly, NGP and SIMA cells", "result": "selective loss of EP300 expression by 24 h"}, {"measurement": "EP300, H3K27ac and PARP1 cleavage in control versus CRBN-edited cells", "setting": "EP300; Kelly-Cas9 cells, 500 nM, 24 h", "result": "suppressed EP300 expression and the H3K27ac modification, and induced apoptosis marked by PARP1 cleavage in control knockout cells, but not in CRBN-edited cells"}, {"measurement": "cell cycle / subG1 effect", "setting": "[1]", "result": "induction of a subG1 peak"}, {"measurement": "growth of BE2C-CRBN cells", "setting": "BE2C-CRBN cells", "result": "suppressed"}]}
